# Data: ChEMBL document CHEMBL3046027, “In vitro and in vivo antifungal activity of synthetic pure isothiocyanates against Sclerotinia sclerotiorum” (Pest Manag Sci, 2011)
# Tests used:
# [1] = tested on: Sclerotinia sclerotiorum; experiment: Antifungal activity against Sclerotinia sclerotiorum assessed as inhibition of mycelial growth in contact phase at 676 umol/l measured at 20 degC after 5 days; format: functional; details: 120 h, read-out: GI
# [2] = tested on: Sclerotinia sclerotiorum; experiment: Fungistatic activity in Sclerotinia sclerotiorum assessed as inhibition of mycelial growth in contact phase at 1501 umol/l measured at 20 degC after 5 days relative to control; format: functional; details: 120 h, read-out: GI
# [3] = tested on: Sclerotinia sclerotiorum; experiment: Fungistatic activity in Sclerotinia sclerotiorum assessed as inhibition of carpogenic germination in volatile phase at 375 umol/l measured at 20 degC after 5 days relative to control; format: functional; details: 120 h
# [4] = tested on: Sclerotinia sclerotiorum; experiment: Fungistatic activity in Sclerotinia sclerotiorum assessed as inhibition of carpogenic germination in volatile phase at 38 umol/l measured at 20 degC after 5 days relative to control; format: functional; details: 120 h
# [5] = tested on: Sclerotinia sclerotiorum; experiment: Antifungal activity against Sclerotinia sclerotiorum assessed as inhibition of mycelial growth in contact phase at 525 umol/l measured at 20 degC after 5 days; format: functional; details: 120 h, read-out: GI
# [6] = tested on: Sclerotinia sclerotiorum; experiment: Antifungal activity against Sclerotinia sclerotiorum assessed as inhibition of germination in volatile phase at 375 umol/l measured at 20 degC after 5 days; format: functional; details: 120 h
# [7] = tested on: Sclerotinia sclerotiorum; experiment: Antifungal activity against Sclerotinia sclerotiorum assessed as inhibition of germination in volatile phase at 75 umol/l measured at 20 degC after 5 days; format: functional; details: 120 h
# [8] = tested on: Sclerotinia sclerotiorum; experiment: Antifungal activity against Sclerotinia sclerotiorum assessed as inhibition of mycelial growth in contact phase at 1501 umol/l measured at 20 degC after 5 days; format: functional; details: 120 h, read-out: GI
# [9] = tested on: Sclerotinia sclerotiorum; experiment: Antifungal activity against Sclerotinia sclerotiorum assessed as inhibition of mycelial growth in volatile phase at 375 umol/l measured at 20 degC after 5 days; format: functional; details: 120 h, read-out: GI
# [10] = tested on: Sclerotinia sclerotiorum; experiment: Antifungal activity against Sclerotinia sclerotiorum assessed as inhibition of mycelial growth in volatile phase at 525 umol/l measured at 20 degC after 5 days; format: functional; details: 120 h, read-out: GI
# [11] = tested on: Sclerotinia sclerotiorum; experiment: In vivo antifungal Sclerotinia sclerotiorum in Pepper (Capsicum annuum L. cv. Sera Demre) assessed as inhibition of mycelial growth in volatile phase at 75 umol/L measured after 10 to 14 weeks; format: functional
# [12] = tested on: Sclerotinia sclerotiorum; experiment: Fungistatic activity in Sclerotinia sclerotiorum assessed as inhibition of mycelial growth in volatile phase measured at 20 degC after 5 days; format: functional, organism-based; details: 120 h
# [13] = tested on: Sclerotinia sclerotiorum; experiment: Antifungal activity against Sclerotinia sclerotiorum assessed as inhibition of mycelial growth in volatile phase at 751 umol/l measured at 20 degC after 5 days; format: functional; details: 120 h, read-out: GI
# [14] = tested on: Sclerotinia sclerotiorum; experiment: Antifungal activity against Sclerotinia sclerotiorum assessed as inhibition of mycelial growth in volatile phase at 75 umol/l measured at 20 degC after 5 days; format: functional; details: 120 h, read-out: GI
# [15] = tested on: Sclerotinia sclerotiorum; experiment: In vivo antifungal Sclerotinia sclerotiorum in Pepper (Capsicum annuum L. cv. Sera Demre) assessed as inhibition of mycelial growth in volatile phase at 150 umol/L measured after 10 to 14 weeks; format: functional
# [16] = tested on: Sclerotinia sclerotiorum; experiment: Antifungal activity against Sclerotinia sclerotiorum assessed as inhibition of germination in volatile phase at 38 umol/l measured at 20 degC after 5 days; format: functional; details: 120 h
# [17] = tested on: Sclerotinia sclerotiorum; experiment: Antifungal activity against Sclerotinia sclerotiorum assessed as inhibition of germination in volatile phase at 225 umol/l measured at 20 degC after 5 days; format: functional; details: 120 h
# [18] = tested on: Sclerotinia sclerotiorum; experiment: Antifungal activity against Sclerotinia sclerotiorum assessed as inhibition of mycelial growth in volatile phase at 38 umol/l measured at 20 degC after 5 days; format: functional; details: 120 h, read-out: GI
# [19] = tested on: Sclerotinia sclerotiorum; experiment: Antifungal activity against Sclerotinia sclerotiorum assessed as inhibition of mycelial growth in contact phase at 751 umol/l measured at 20 degC after 5 days; format: functional; details: 120 h, read-out: GI
# [20] = tested on: Sclerotinia sclerotiorum; experiment: Fungistatic activity in Sclerotinia sclerotiorum assessed as inhibition of carpogenic germination in volatile phase at 75 umol/l measured at 20 degC after 5 days relative to control; format: functional; details: 120 h
# [21] = tested on: Sclerotinia sclerotiorum; experiment: Antifungal activity against Sclerotinia sclerotiorum assessed as inhibition of germination in volatile phase at 751 umol/l measured at 20 degC after 5 days; format: functional; details: 120 h
# [22] = tested on: Sclerotinia sclerotiorum; experiment: Fungistatic activity in Sclerotinia sclerotiorum assessed as inhibition of carpogenic germination in volatile phase at 751 umol/l measured at 20 degC after 5 days relative to control; format: functional; details: 120 h
# [23] = tested on: Sclerotinia sclerotiorum; experiment: Fungistatic activity in Sclerotinia sclerotiorum assessed as sclerotial viability measured at 20 degC after 5 days; format: functional, organism-based; details: 120 h
# [24] = tested on: Sclerotinia sclerotiorum; experiment: Fungitoxic activity in Sclerotinia sclerotiorum assessed as viability in volatile phase at 225 umol/l measured at 20 degC after 5 days relative to control; format: functional; details: 120 h, read-out: GI
# [25] = tested on: Sclerotinia sclerotiorum; experiment: Antifungal activity against Sclerotinia sclerotiorum assessed as inhibition of mycelial growth in contact phase at 2252 umol/l measured at 20 degC after 5 days; format: functional; details: 120 h, read-out: GI
# [26] = tested on: Sclerotinia sclerotiorum; experiment: Fungistatic activity in Sclerotinia sclerotiorum assessed as inhibition of mycelial growth in volatile phase at 525 umol/l measured at 20 degC after 5 days relative to control; format: functional; details: 120 h, read-out: GI
# [27] = tested on: Sclerotinia sclerotiorum; experiment: Fungitoxic activity in Sclerotinia sclerotiorum assessed as inhibition of mycelial growth in contact phase at 2252 umol/l measured at 20 degC after 5 days relative to control; format: functional; details: 120 h, read-out: GI
# [28] = tested on: Sclerotinia sclerotiorum; experiment: Fungistatic activity in Sclerotinia sclerotiorum assessed as inhibition of mycelial growth in contact phase measured at 20 degC after 5 days; format: functional, organism-based; details: 120 h
# [29] = tested on: Sclerotinia sclerotiorum; experiment: Fungitoxic activity in Sclerotinia sclerotiorum assessed as inhibition of mycelial growth in volatile phase at 751 umol/l measured at 20 degC after 5 days relative to control; format: functional; details: 120 h, read-out: GI
compound,measurement,setting,value
S=C=NCc1ccccc1 [BENZYL ISOTHIOCYANATE],inhibition of growth at 676 µM,[1],37%
same,inhibition of growth at 1501 µM,[2],100%
same,inhibition at 375 µM,[3],72.5%
same,inhibition at 38 µM,[4],55%
same,inhibition of growth at 525 µM,[5],5%
same,inhibition at 375 µM,[6],100%
same,inhibition at 75 µM,[7],53.3%
same,inhibition of growth at 1501 µM,[8],100%
same,inhibition of growth at 375 µM,[9],78.2%
same,inhibition of growth at 525 µM,[10],100%
same,inhibition in vivo at 75 µM,[11],36.7%
same,EC50,[12],60.1 µM
same,inhibition of growth at 751 µM,[13],100%
same,inhibition of growth at 75 µM,[14],71.2%
same,inhibition in vivo at 150 µM,[15],63.3%
same,inhibition at 38 µM,[16],6.7%
same,inhibition at 225 µM,[17],100%
same,inhibition of growth at 38 µM,[18],35%
same,inhibition of growth at 751 µM,[19],100%
same,inhibition at 75 µM,[20],62.5%
same,inhibition at 751 µM,[21],100%
same,inhibition at 751 µM,[22],92.5%
same,EC50,[23],75.1 µM
same,inhibition of growth at 225 µM,[24],100%
same,inhibition of growth at 2252 µM,[25],100%
same,inhibition of growth at 525 µM,[26],100%
same,inhibition of growth at 2252 µM,[27],100%
same,EC50,[28],676 µM
same,inhibition of growth at 751 µM,[29],100%
